Reference: patent US6737383B1, “Herbicidal oxadiazolidines” (priority 1999, dated 2004)

Key:
cocklebur = assay: Test B pre/postemergence cocklebur; assay type: in vivo, Xanthium strumarium
Outline: (§1)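 Test chemicals in a non-phytotoxic solvent mixture with surfactant were sprayed preemergence onto planted seeds and postemergence onto plants 2 to 18 cm tall (1- to 4-leaf stage). After twelve to sixteen days in a greenhouse, injury was visually rated against untreated controls from 0 (no effect) to 10 (complete control).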

rice = assay: Test B flood test rice; assay type: in vivo, Oryza sativa
Outline: (§2)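 Each value is a visual injury score relative to controls, with 10 meaning complete control and 0 no effect. Evaluation took place twelve to sixteen days after the 2-leaf-stage plants were treated and kept in the greenhouse.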

corn = assay: Test B pre/postemergence corn; assay type: in vivo, Zea mays
Outline: as §1

duck salad = assay: Test B flood test duck salad; assay type: in vivo, Heteranthera limosa
Outline: as §2

pigweed = assay: Test B pre/postemergence pigweed; assay type: in vivo, Amaranthus retroflexus
Outline: as §1

surinam grass = assay: Test B pre/postemergence surinam grass; assay type: in vivo, Brachiaria decumbens
Outline: as §1

bedstraw = assay: Test B pre/postemergence bedstraw; assay type: in vivo, Galium aparine
Outline: as §1

smallflower flatsedge = assay: Test B flood test smallflower flatsedge; assay type: in vivo, Cyperus difformis
Outline: as §2

giant foxtail = assay: Test B pre/postemergence giant foxtail; assay type: in vivo, Setaria faberii
Outline: as §1

wild oat = assay: Test B pre/postemergence wild oat; assay type: in vivo, Avena fatua; conditions: for Plant response rating, Wild oats: Rate 250 g/ha
Outline: as §1

velvetleaf = assay: Test B pre/postemergence velvetleaf; assay type: in vivo, Abutilon theophrasti; conditions: for Plant response rating, Velvetleaf: Rate 250 g/ha
Outline: as §1

wheat = assay: Test B pre/postemergence wheat; assay type: in vivo, Triticum aestivum; conditions: for Plant response rating, Wheat: Rate 250 g/ha
Outline: as §1

soybean = assay: Test B pre/postemergence soybean; assay type: in vivo, Glycine max
Outline: as §1

rape = assay: Test B pre/postemergence rape; assay type: in vivo, Brassica napus
Outline: as §1

purple nutsedge = assay: Test B pre/postemergence purple nutsedge; assay type: in vivo, Cyperus rotundus
Outline: as §1

sugar beet = assay: Test B pre/postemergence sugar beet; assay type: in vivo, Beta vulgaris; conditions: for Plant response rating, Sugarbeets: Rate 250 g/ha
Outline: as §1

[1] = Postemergence, Rate 125 g/ha, scale of 0 to 10 where 0 is no effect and 10 is complete control
[2] = Postemergence, Rate 250 g/ha, scale 0 to 10, 0 no effect, 10 complete control
[3] = Preemergence, Rate 62 g/ha, scale 0 to 10 (0 no effect, 10 complete control)
[4] = Preemergence, Rate 125 g/ha, scale 0 to 10 (0 no effect, 10 complete control)
[5] = Preemergence, Rate 250 g/ha, scale of 0 to 10 where 0 is no effect and 10 is complete control
[6] = Rate 62 g/ha, Postemergence, scale of 0 to 10 where 0 is no effect and 10 is complete control
[7] = Rate 500 g/ha, Postemergence, scale 0 to 10, 0 no effect, 10 complete control
[8] = Postemergence (flood test species), Rate 125 g/ha, scale of 0 to 10 where 0 is no effect and 10 is complete control
[9] = Rate 62 g/ha, Postemergence section, flood test species, scale of 0 to 10 where 0 is no effect and 10 is complete control
[10] = Rate 250 g/ha, Postemergence (flood test), scale 0 to 10, 0 is no effect, 10 is complete control
[11] = Rate 500 g/ha, listed under Postemergence (flood test species), scale 0 to 10, 0 no effect, 10 complete control
[12] = Rate 250 g/ha, Postemergence, scale 0 to 10, 0 is no effect, 10 is complete control
[13] = Postemergence, Rate 62 g/ha, scale 0 to 10, 0 is no effect, 10 is complete control
[14] = Rate 125 g/ha, Postemergence, scale 0 to 10, 0 no effect, 10 complete control
[15] = Preemergence, Rate 125 g/ha, 0 is no effect, 10 is complete control
[16] = Preemergence, scale of 0 to 10 where 0 is no effect and 10 is complete control
[17] = Postemergence, scale 0 to 10, 0 is no effect, 10 is complete control

## CCc1noc(CC)c1-n1c(=O)on(C(=O)N(c2ccc(F)cc2)C(C)C)c1=O [Compound 102]
cocklebur; [1]
  Cocklebur plant response rating: 0
cocklebur; [2]
  Cocklebur plant response rating: 0
cocklebur; [3]
  Cocklebur plant response rating: 0
cocklebur; [4]
  Plant response rating, Cocklebur: 0
cocklebur; [5]
  Plant response rating, Cocklebur: 0
cocklebur; [6]
  Cocklebur plant response rating: 0
cocklebur; [7]
  Cocklebur plant response rating: 0
rice; [8]
  Rice plant response rating: 0
rice; [9]
  Rice plant response rating: 0
rice; [10]
  Plant response rating, Rice: 0
rice; [11]
  Rice plant response rating: 0
corn; [1]
  Corn plant response rating: 0
corn; [2]
  Corn plant response rating: 0
corn; [3]
  Corn plant response rating: 0
corn; [4]
  Plant response rating, Corn: 0
corn; [5]
  Plant response rating, Corn: 0
corn; [6]
  Corn plant response rating: 0
corn; [7]
  Corn plant response rating: 2
Duck salad; [8]
  Ducksalad plant response rating: 0
Duck salad; [9]
  Ducksalad plant response rating: 0
Duck salad; [11]
  Ducksalad plant response rating: 0
Duck salad; flood test, listed under Postemergence, Rate 250 g/ha, scale 0 to 10, 0 no effect, 10 complete control
  Ducksalad plant response rating: 0
pigweed; [1]
  Redroot pigweed plant response rating: 0
pigweed; [3]
  Redroot pigweed plant response rating: 0
pigweed; [4]
  Plant response rating, Redroot pigweed: 0
pigweed; [5]
  Plant response rating, Redroot pigweed: 0
pigweed; [6]
  Redroot pigweed plant response rating: 0
pigweed; [12]
  Plant response rating, Redroot pigweed: 0
pigweed; [7]
  Redroot pigweed plant response rating: 0
Surinam grass; [13]
  B. signalgrass plant response rating: 0
Surinam grass; [2]
  B. signalgrass plant response rating: 0
Surinam grass; [3]
  B. signalgrass plant response rating: 0
Surinam grass; [4]
  Plant response rating, B. signalgrass: 0
Surinam grass; [5]
  Plant response rating, B. signalgrass: 0
Surinam grass; [14]
  B. signalgrass plant response rating: 0
Surinam grass; Rate 500 g/ha, Postemergence, scale of 0 to 10 where 0 is no effect and 10 is complete control
  B. signalgrass plant response rating: 0
bedstraw; [13]
  Bedstraw plant response rating: 0
bedstraw; [2]
  Bedstraw plant response rating: 0
bedstraw; [3]
  Bedstraw plant response rating: 0
bedstraw; [4]
  Plant response rating, Bedstraw: 0
bedstraw; [5]
  Plant response rating, Bedstraw: 0
bedstraw; [14]
  Bedstraw plant response rating: 0
bedstraw; [7]
  Bedstraw plant response rating: 3
Smallflower flatsedge; [8]
  S. Flatsedge plant response rating: 0
Smallflower flatsedge; [9]
  S. Flatsedge plant response rating: 0
Smallflower flatsedge; [10]
  Plant response rating, S. Flatsedge: 0
Smallflower flatsedge; [11]
  S. Flatsedge plant response rating: 0
Giant foxtail; [1]
  Giant foxtail plant response rating: 0
Giant foxtail; [2]
  Giant foxtail plant response rating: 0
Giant foxtail; [3]
  Giant foxtail plant response rating: 2
Giant foxtail; [4]
  Plant response rating, Giant foxtail: 4
Giant foxtail; [5]
  Plant response rating, Giant foxtail: 9
Giant foxtail; [6]
  Giant foxtail plant response rating: 0
Giant foxtail; [7]
  Giant foxtail plant response rating: 2
Wild oat; [1]
  Wild oats plant response rating: 0
Wild oat; [3]
  Wild oats plant response rating: 0
Wild oat; [15]
  Wild oats plant response rating (0 to 10 scale): 0
Wild oat; [16]
  Plant response rating, Wild oats: 0
Wild oat; [6]
  Wild oats plant response rating: 0
Wild oat; [17]
  Plant response rating, Wild oats: 0
Wild oat; [7]
  Wild oats plant response rating: 0
velvetleaf; [1]
  Velvetleaf plant response rating: 0
velvetleaf; [3]
  Velvetleaf plant response rating: 0
velvetleaf; [15]
  Velvetleaf plant response rating (0 to 10 scale): 0
velvetleaf; [16]
  Plant response rating, Velvetleaf: 0
velvetleaf; [6]
  Velvetleaf plant response rating: 0
velvetleaf; [17]
  Plant response rating, Velvetleaf: 0
velvetleaf; [7]
  Velvetleaf plant response rating: 3
wheat; [1]
  Wheat plant response rating: 0
wheat; [3]
  Wheat plant response rating: 0
wheat; [15]
  Wheat plant response rating (0 to 10 scale): 0
wheat; [16]
  Plant response rating, Wheat: 0
wheat; [6]
  Wheat plant response rating: 0
wheat; [17]
  Plant response rating, Wheat: 0
wheat; [7]
  Wheat plant response rating: 0
soybean; [1]
  Soybean plant response rating: 0
soybean; [3]
  Soybean plant response rating: 0
soybean; [4]
  Plant response rating, Soybean: 0
soybean; [5]
  Plant response rating, Soybean: 0
soybean; [6]
  Soybean plant response rating: 0
soybean; [12]
  Plant response rating, Soybean: 0
soybean; [7]
  Soybean plant response rating: 0
rape; [1]
  Rape plant response rating: 0
rape; [2]
  Rape plant response rating: 0
rape; [3]
  Rape plant response rating: 0
rape; [4]
  Plant response rating, Rape: 0
rape; [5]
  Plant response rating, Rape: 0
rape; [6]
  Rape plant response rating: 0
rape; [7]
  Rape plant response rating: 0
Purple nutsedge; [1]
  Nutsedge plant response rating: 0
Purple nutsedge; [2]
  Nutsedge plant response rating: 0
Purple nutsedge; [3]
  Nutsedge plant response rating: 0
Purple nutsedge; [4]
  Plant response rating, Nutsedge: 0
Purple nutsedge; [5]
  Plant response rating, Nutsedge: 0
Purple nutsedge; [6]
  Nutsedge plant response rating: 0
Purple nutsedge; [7]
  Nutsedge plant response rating: 0
Sugar beet; [1]
  Sugarbeets plant response rating: 0
Sugar beet; [3]
  Sugarbeets plant response rating: 0
Sugar beet; [15]
  Sugarbeets plant response rating (0 to 10 scale): 0
Sugar beet; [16]
  Plant response rating, Sugarbeets: 0
Sugar beet; [6]
  Sugarbeets plant response rating: 0
Sugar beet; [17]
  Plant response rating, Sugarbeets: 0
Sugar beet; [7]
  Sugarbeets plant response rating: 0
